Several values for one entry are separate records, joined by “and”; a condition that tells them apart may be missing. Equal values may be shown once. Read-outs that look alike come from different tables or passages of the source.
Legend:
[1] = tested on: sunflower TH1 (Hybrid, A205V); type: in vivo, Helianthus annuus; conditions: 14 DAT
Method: (§1) A greenhouse study was conducted to quantify and contrast the imazapir sensivity of the mutants A122T and A205V in different genetic backgrounds at the whole plant level in sunflower. Seeds of the different sunflower lines that were used in this study were obtained under field conditions.
(§2) Seeds were sown in Petri dishes and, after germination, plantlets were transplanted to pots of 10 cm of diameter in a potting media consisting of equal parts of vermiculite, soil and sand. Plants were grown in a greenhouse under natural light conditions supplemented with 400 W sodium halide lamps to provide a 16 hrs daylength. Day/night temperatures were 25 and 20° C., respectively. At the V2 stage 10 plants of each genotype were randomly assigned to each treatment consisting of […] imazapir doses (0, 40, 80, 160, 240, 320, 400 and 480 g ai/ha), and a zero-time biomass determination. Experiment was arranged as a randomized block design with a full factorial (sunflower line×treatment) arrangement of treatments and 10 replications.
(§3) On the day of herbicide application ten plants of each genotype were cut at the cotyledonal node and dried at 60° C. for 48 hrs zero-time for dried weight determination.
(§4) Height was determined as the distance between the cotyledonal node and the apex of each plant. For root biomass determination, each plant was taken from the pot and the potting media was washed out from the roots. Above ground biomass data from each line were converted to biomass accumulation after application by subtracting the appropriate average zero-time biomass from each sample. Dry biomass data were converted to percentages of the untreated control plants within each line to allow direct comparisons between groups. […]

[2] = tested on: sunflower lines carrying the A122T mutation; type: in vivo, Helianthus annuus; conditions: 14 DAT; for biomass accumulation, Dif A122T-A205V / plant height, Dif A122T-A205V / root dry weight, Dif with A122T-A205V: A122T mean minus A205V mean; for biomass accumulation, Dif with Control / plant height, Dif with Control / root dry weight, Dif with Control: A122T mean; for Phytotoxicity Index, Dif A205V-A122T: A205V mean minus A122T mean; for biomass accumulation, Mean / plant height, Mean / root dry weight, Mean: six A122T genotypes; for Phytotoxicity Index, Mean: three A122T genotypes
Method: as §1, §2, §3, §4

CC(C)C1(C)N=C(c2ncccc2C(=O)O)NC1=O (centres unmarked) [imazapyr]
biomass accumulation (above ground dry weight) ([1]; 0.5x (40 g ai/ha)): 95.0 % of untreated plots
plant height ([1]; 0.5x (40 g ai/ha)): 99.5 % of untreated plots
root dry weight ([1]; 0.5x (40 g ai/ha)): 79.4 % of untreated plots
biomass accumulation (above ground dry weight) ([1]; 1x (80 g ai/ha)): 89.6 % of untreated plots
plant height ([1]; 1x (80 g ai/ha)): 99.5 % of untreated plots
root dry weight ([1]; 1x (80 g ai/ha)): 70.7 % of untreated plots
biomass accumulation (above ground dry weight) ([1]; 2x (160 g ai/ha)): 75.5 % of untreated plots
plant height ([1]; 2x (160 g ai/ha)): 78.6 % of untreated plots
root dry weight ([1]; 2x (160 g ai/ha)): 69.6 % of untreated plots
biomass accumulation (above ground dry weight) ([1]; 3x (240 g ai/ha)): 60.4 % of untreated plots
plant height ([1]; 3x (240 g ai/ha)): 48.4 % of untreated plots
root dry weight ([1]; 3x (240 g ai/ha)): 42.3 % of untreated plots
biomass accumulation (above ground dry weight) ([1]; 4x (320 g ai/ha)): 48.5 % of untreated plots
plant height ([1]; 4x (320 g ai/ha)): 28.9 % of untreated plots
root dry weight ([1]; 4x (320 g ai/ha)): 38.6 % of untreated plots
biomass accumulation (above ground dry weight) ([1]; 5x (400 g ai/ha)): 38.9 % of untreated plots
plant height ([1]; 5x (400 g ai/ha)): 25.3 % of untreated plots
root dry weight ([1]; 5x (400 g ai/ha)): 34.7 % of untreated plots
biomass accumulation (above ground dry weight) ([1]; 6x (480 g ai/ha)): 33.9 % of untreated plots
plant height ([1]; 6x (480 g ai/ha)): 27.1 % of untreated plots
root dry weight ([1]; 6x (480 g ai/ha)): 23.1 % of untreated plots
biomass accumulation, Dif A122T-A205V ([2]; 0.5x (40 g ai/ha)): 4.3 % of untreated plots
plant height, Dif A122T-A205V ([2]; 0.5x (40 g ai/ha)): 4.9 % of untreated plots
root dry weight, Dif with A122T-A205V ([2]; 0.5x (40 g ai/ha)): 12.7 % of untreated plots
biomass accumulation, Dif A122T-A205V ([2]; 1x (80 g ai/ha)): 14.5 % of untreated plots
plant height, Dif A122T-A205V ([2]; 1x (80 g ai/ha)): 9.4 % of untreated plots
root dry weight, Dif with A122T-A205V ([2]; 1x (80 g ai/ha)): 26.7 % of untreated plots
biomass accumulation, Dif A122T-A205V ([2]; 2x (160 g ai/ha)): 33.2 % of untreated plots
plant height, Dif A122T-A205V ([2]; 2x (160 g ai/ha)): 28.0 % of untreated plots
root dry weight, Dif with A122T-A205V ([2]; 2x (160 g ai/ha)): 43.6 % of untreated plots
biomass accumulation, Dif A122T-A205V ([2]; 3x (240 g ai/ha)): 45.3 % of untreated plots
plant height, Dif A122T-A205V ([2]; 3x (240 g ai/ha)): 45.3 % of untreated plots
root dry weight, Dif with A122T-A205V ([2]; 3x (240 g ai/ha)): 50.2 % of untreated plots
biomass accumulation, Dif A122T-A205V ([2]; 4x (320 g ai/ha)): 52.4 % of untreated plots
plant height, Dif A122T-A205V ([2]; 4x (320 g ai/ha)): 59.9 % of untreated plots
root dry weight, Dif with A122T-A205V ([2]; 4x (320 g ai/ha)): 50.3 % of untreated plots
biomass accumulation, Dif A122T-A205V ([2]; 5x (400 g ai/ha)): 46.9 % of untreated plots
plant height, Dif A122T-A205V ([2]; 5x (400 g ai/ha)): 57.8 % of untreated plots
root dry weight, Dif with A122T-A205V ([2]; 5x (400 g ai/ha)): 47.9 % of untreated plots
biomass accumulation, Dif A122T-A205V ([2]; 6x (480 g ai/ha)): 44.6 % of untreated plots
plant height, Dif A122T-A205V ([2]; 6x (480 g ai/ha)): 54.0 % of untreated plots
root dry weight, Dif with A122T-A205V ([2]; 6x (480 g ai/ha)): 37.3 % of untreated plots
biomass accumulation, Dif with Control ([2]; 0.5x (40 g ai/ha)): 1.1 % of untreated plots
plant height, Dif with Control ([2]; 0.5x (40 g ai/ha)): 0.6 % of untreated plots
root dry weight, Dif with Control ([2]; 0.5x (40 g ai/ha)): 0.1 % of untreated plots
biomass accumulation, Dif with Control ([2]; 1x (80 g ai/ha)): 3.2 % of untreated plots
plant height, Dif with Control ([2]; 1x (80 g ai/ha)): 1.4 % of untreated plots
root dry weight, Dif with Control ([2]; 1x (80 g ai/ha)): 2.5 % of untreated plots
biomass accumulation, Dif with Control ([2]; 2x (160 g ai/ha)): 5.1 % of untreated plots
plant height, Dif with Control ([2]; 2x (160 g ai/ha)): 2.7 % of untreated plots
root dry weight, Dif with Control ([2]; 2x (160 g ai/ha)): 5.9 % of untreated plots
biomass accumulation, Dif with Control ([2]; 3x (240 g ai/ha)): 7.2 % of untreated plots
plant height, Dif with Control ([2]; 3x (240 g ai/ha)): 4.4 % of untreated plots
root dry weight, Dif with Control ([2]; 3x (240 g ai/ha)): 10.6 % of untreated plots
biomass accumulation, Dif with Control ([2]; 4x (320 g ai/ha)): 12.2 % of untreated plots
plant height, Dif with Control ([2]; 4x (320 g ai/ha)): 6.3 % of untreated plots
root dry weight, Dif with Control ([2]; 4x (320 g ai/ha)): 18.6 % of untreated plots
biomass accumulation, Dif with Control ([2]; 5x (400 g ai/ha)): 20.7 % of untreated plots
plant height, Dif with Control ([2]; 5x (400 g ai/ha)): 10.2 % of untreated plots
root dry weight, Dif with Control ([2]; 5x (400 g ai/ha)): 21.3 % of untreated plots
plant height, Dif with Control ([2]; 6x (480 g ai/ha)): 15.8 % of untreated plots
root dry weight, Dif with Control ([2]; 6x (480 g ai/ha)): 38.3 % of untreated plots
biomass accumulation, Dif with Control ([2]; 6x (480 g ai/ha), listed as imazapir): 25 % of untreated plots and 25.4 % of untreated plots
Phytotoxicity Index, Dif A205V-A122T ([2]; 0.5x (40 g ai/ha)): −0.29
Phytotoxicity Index, Dif A205V-A122T ([2]; 1x (80 g ai/ha)): −0.29
Phytotoxicity Index, Dif A205V-A122T ([2]; 2x (160 g ai/ha)): 1.87
Phytotoxicity Index, Dif A205V-A122T ([2]; 3x (240 g ai/ha)): 4.81
Phytotoxicity Index, Dif A205V-A122T ([2]; 4x (320 g ai/ha)): 6.92
Phytotoxicity Index, Dif A205V-A122T ([2]; 5x (400 g ai/ha)): 7.38
Phytotoxicity Index, Dif A205V-A122T ([2]; 6x (480 g ai/ha)): 7.03
biomass accumulation, Mean ([2]; 0.5x (40 g ai/ha)): 98.9 % of untreated plots
plant height, Mean ([2]; 0.5x (40 g ai/ha)): 99.4 % of untreated plots
root dry weight, Mean ([2]; 0.5x (40 g ai/ha)): 99.9 % of untreated plots
biomass accumulation, Mean ([2]; 1x (80 g ai/ha)): 96.8 % of untreated plots
plant height, Mean ([2]; 1x (80 g ai/ha)): 98.6 % of untreated plots
root dry weight, Mean ([2]; 1x (80 g ai/ha)): 97.5 % of untreated plots
biomass accumulation, Mean ([2]; 2x (160 g ai/ha)): 94.9 % of untreated plots
plant height, Mean ([2]; 2x (160 g ai/ha)): 97.3 % of untreated plots
root dry weight, Mean ([2]; 2x (160 g ai/ha)): 94.1 % of untreated plots
biomass accumulation, Mean ([2]; 3x (240 g ai/ha)): 92.8 % of untreated plots
plant height, Mean ([2]; 3x (240 g ai/ha)): 95.6 % of untreated plots
root dry weight, Mean ([2]; 3x (240 g ai/ha)): 89.4 % of untreated plots
biomass accumulation, Mean ([2]; 4x (320 g ai/ha)): 87.8 % of untreated plots
plant height, Mean ([2]; 4x (320 g ai/ha)): 93.7 % of untreated plots
root dry weight, Mean ([2]; 4x (320 g ai/ha)): 81.4 % of untreated plots
biomass accumulation, Mean ([2]; 5x (400 g ai/ha)): 79.3 % of untreated plots
plant height, Mean ([2]; 5x (400 g ai/ha)): 89.8 % of untreated plots
root dry weight, Mean ([2]; 5x (400 g ai/ha)): 78.7 % of untreated plots
biomass accumulation, Mean ([2]; 6x (480 g ai/ha)): 74.6 % of untreated plots
plant height, Mean ([2]; 6x (480 g ai/ha)): 84.2 % of untreated plots
root dry weight, Mean ([2]; 6x (480 g ai/ha)): 61.7 % of untreated plots
Phytotoxicity Index, Mean ([2]; 0.5x (40 g ai/ha)): 0.3
Phytotoxicity Index, Mean ([2]; 1x (80 g ai/ha)): 0.3
Phytotoxicity Index, Mean ([2]; 2x (160 g ai/ha)): 0.3
Phytotoxicity Index, Mean ([2]; 3x (240 g ai/ha)): 0.3
Phytotoxicity Index, Mean ([2]; 4x (320 g ai/ha)): 0.5
Phytotoxicity Index, Mean ([2]; 5x (400 g ai/ha)): 0.8
Phytotoxicity Index, Mean ([2]; 6x (480 g ai/ha)): 1.2

Source: US20180016593A1, “HERBICIDE-RESISTANT SUNFLOWER PLANTS, POLYNUCLEOTIDES ENCODING HERBICIDE-RESISTANT ACETOHYDROXYACID SYNTHASE LARGE SUBUNIT PROTEINS, AND METHODS OF USE” (priority 2005, published 2018)
